In PubChem BioAssay (NCI) one finds TGI and GI50 data, which are given here for 13 compounds.

Among the test systems are CAKI-1 renal; SF-295 CNS; UO-31 renal; KM12 colon; NCI-H522 lung; OVCAR-8 ovarian; NCI-H460 lung; NCI/ADR-RES ovarian; HL-60(TB) leukemia.
Test in all cases: NCI anticancer screen, dose series, 48 h

The structures appear in SMILES notation.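 Five compound concentrations were applied to cells in 96-well plates for 48 hours; endpoints were derived by simple linear interpolation of the resulting dose-response curve. Here, GI50 denotes the concentration required for 50% inhibition of growth. Definition used: TGI = concentration required for complete inhibition of growth.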

For `Cc1cnc2[nH]c(-c3cccc(Cl)c3)cc(=O)c2c1`, the TGI with CAKI-1 renal is 59.7 µM; in the assay on SF-295 CNS, 1.64 µM; with UO-31 renal, above 100 µM; in the assay on KM12 colon, above 100 µM; with NCI-H522 lung, 15 µM; in the assay on OVCAR-8 ovarian, above 100 µM. The results for the TGI in the assay with NCI-H460 lung, with NCI/ADR-RES ovarian and in the assay on HL-60(TB) leukemia were above 58.2 µM, above 100 µM and 0.609 µM, respectively.

Regarding `COc1c(Cl)c(Cl)c(OC)c2c1C(=O)C=CC2=O`, the TGI with CAKI-1 renal was 59.1 µM; in the assay on SF-295 CNS it was 48.8 µM; in the assay with UO-31 renal, 31.7 µM; in the assay with KM12 colon, 32.2 µM; with NCI-H522 lung, 31.7 µM; in the assay with OVCAR-8 ovarian, 32.1 µM. Further, the TGI in the assay with NCI-H460 lung was above 100 µM; with HL-60(TB) leukemia it was 5.09 µM.

Turning to `COC(=O)c1ccccc1N=Cc1ccc(N(CCC#N)S(=O)(=O)c2ccccc2)cc1`, the TGI in the assay with CAKI-1 renal, in the assay with SF-295 CNS, in the assay on UO-31 renal, in the assay with KM12 colon, in the assay with NCI-H522 lung and in the assay with OVCAR-8 ovarian was above 100 µM in each case. The TGI in the assay on NCI-H460 lung and in the assay on HL-60(TB) leukemia was above 100 µM each time.

Consider `CC(C)(Oc1ccc(C(=O)c2ccc(Cl)cc2)cc1Cl)C(=O)N1CCN(c2ccccc2)CC1`, for which the TGI in the assay with SF-295 CNS, with UO-31 renal, in the assay with KM12 colon, in the assay with NCI-H522 lung, in the assay with OVCAR-8 ovarian and in the assay on NCI-H460 lung was above 100 µM throughout. For the same compound, the TGI in the assay with HL-60(TB) leukemia was above 100 µM.

Turning to `COc1ccc(/C=C/C(c2cc(OC)c(OC)c(OC)c2)n2cncn2)cc1O` (stereo unspecified), the GI50 in the assay with CAKI-1 renal was 2.83 µM; in the assay with KM12 colon it was 0.0405 µM; with NCI-H460 lung, 0.0423 µM; with HL-60(TB) leukemia it was 0.0245 µM. The TGI is above 100 µM in the assay with CAKI-1 renal, above 100 µM with KM12 colon, 51.9 µM with NCI-H460 lung and 0.0627 µM in the assay on HL-60(TB) leukemia.

Take `COc1ccc(N2C(=O)C3c4[nH]c5ccccc5c4C4CCC(C(C)(C)C)CC4C3C2=O)cc1OC` (stereo unspecified): the TGI in the assay on SF-295 CNS was 42.6 µM; in the assay with UO-31 renal it was above 100 µM; in the assay on NCI-H522 lung, 33.4 µM; in the assay with OVCAR-8 ovarian, 33.9 µM; in the assay with HL-60(TB) leukemia, above 100 µM.

As to `CCCN(CCC)c1c([N+](=O)[O-])cc(C(=O)N(C)C)cc1[N+](=O)[O-]`, the TGI with CAKI-1 renal, with SF-295 CNS, with UO-31 renal, with KM12 colon, in the assay with NCI-H522 lung and in the assay on OVCAR-8 ovarian was above 100 µM each time. In addition, the TGI with NCI-H460 lung was above 100 µM; in the assay on HL-60(TB) leukemia, 86.8 µM.

Consider `NC(=S)N/N=C(\C(=O)Nc1ccc(Cl)c(Cl)c1)C1=NN(c2ccccc2)C(c2cccc([N+](=O)[O-])c2)CC1=O` (stereo unspecified), for which the TGI in the assay with CAKI-1 renal was above 100 µM; with SF-295 CNS, 57.2 µM; in the assay on UO-31 renal, above 100 µM; in the assay on KM12 colon it was above 100 µM; in the assay on OVCAR-8 ovarian, above 100 µM; in the assay with NCI-H460 lung, above 100 µM. In the assay on HL-60(TB) leukemia, the TGI was above 100 µM.

On to `Cc1oc2c(C)c3oc(=O)cc(C)c3cc2c1CN`, for which the TGI with SF-295 CNS, in the assay with UO-31 renal, with KM12 colon, with NCI-H522 lung, in the assay with OVCAR-8 ovarian and with NCI-H460 lung was above 100 µM throughout. The compound further had a TGI in the assay with HL-60(TB) leukemia above 100 µM.

With `Oc1ccccc1C=Nc1ccccc1N=Cc1ccccc1O`, the TGI was above 100 µM with SF-295 CNS; above 100 µM in the assay with KM12 colon; 45.7 µM with NCI-H522 lung; above 100 µM in the assay with OVCAR-8 ovarian; above 100 µM in the assay on NCI-H460 lung; 81.5 µM in the assay on HL-60(TB) leukemia.

On to `COc1cc(C(CC(OC)OC)=C(C#N)C#N)cc(OC)c1OC`, for which the TGI with CAKI-1 renal is above 100 µM; in the assay on SF-295 CNS it was 62.9 µM; in the assay with UO-31 renal, above 100 µM; in the assay on KM12 colon, 60.5 µM; in the assay with NCI-H522 lung it was 32.9 µM; in the assay with OVCAR-8 ovarian, 73 µM. The TGI in the assay with NCI-H460 lung is 23.4 µM; with HL-60(TB) leukemia it was 67.8 µM.

Consider `CCCCNCC(O)c1cc(-c2ccc(C(F)(F)F)cc2)nc(-c2ccc(C(F)(F)F)cc2)c1` (stereo unspecified), for which the GI50 in the assay on CAKI-1 renal was 1.71 µM; in the assay on UO-31 renal, 1.44 µM; with KM12 colon, 1.81 µM; in the assay with NCI-H522 lung, 1.8 µM. Further, the TGI with CAKI-1 renal came out at 3.41 µM; in the assay on UO-31 renal, 3.08 µM; with KM12 colon, 3.6 µM; in the assay on NCI-H522 lung, 3.53 µM.

Take `Cc1ccc(Nc2ccc(Nc3ccc(C)cc3S(=O)(=O)O)c3c2C(=O)c2ccccc2C3=O)c(S(=O)(=O)O)c1`: the TGI in the assay on CAKI-1 renal, with UO-31 renal, in the assay on KM12 colon, in the assay with NCI-H522 lung, with OVCAR-8 ovarian and in the assay on NCI-H460 lung was above 100 µM throughout. In the assay on HL-60(TB) leukemia, the TGI is above 100 µM.
